{"source": "patent US12234504B1", "about": "(priority 2023, dated 2025)", "key": {"[1]": {"tested_on": "human DNA topoisomerase IIα", "assay": "Agarose gel-based human DNA topoisomerase IIα mediated DNA cleavage assay", "assay_type": "biochemical", "conditions": "50 μM etoposide, increasing topoisomerase IIα, FIG. 8A", "procedure": "(§1) FIGS. 8A-8C. […] Fluorescence intensity was measured using a Biotek microplate reader with excitation wavelength of 497 nm and emission wavelength of 525 nm.\nDNA Gyrase and Human DNA Topoisomerase IIα Mediated DNA Cleavage Assay.\n250 ng of relaxed plasmid pBR322 and 20 nM of E. coli DNA gyrase or human DNA topoisomerase IIα were mixed and incubated in 1×gyrase-mediated DNA cleavage buffer (20 mM Tris-HCl pH 8, 50 mM KAc, 10 mM MgCl2, 2 mM DTT, 1 mM ATP, 0.1 mg/mL BSA) at 37° C. for 15 minutes in the presence of an inhibitor or compound. After the incubation, 0.2% SDS and 0.1 mg/ml proteinase K were added to the reaction mixtures to trap the topoisomerase-inhibitor-DNA complex and digest the topoisomerase, respectively, by incubating for an additional 30 min at 37° C. DNA samples were analyzed in 1% agarose gel containing […] ethidium bromide in 1′TAE buffer and photographed under UV light. […] Etoposide was used as a positive control for human DNA topoisomerase IIα-mediated DNA cleavage assays."}, "[2]": {"tested_on": "human DNA topoisomerase IIα", "assay": "Fluorescence-based DNA cleavage assay for human DNA topoisomerase IIα (T5 exonuclease digestion, SYBR Green staining)", "assay_type": "biochemical", "conditions": "50 μM etoposide, […] human TopoIIα, FIG. 8C", "procedure": "as §1"}}, "data": [{"smiles": "COc1cc([C@@H]2c3cc4c(cc3[C@@H](O[C@@H]3O[C@@H]5CO[C@@H](C)O[C@H]5[C@H](O)[C@H]3O)[C@H]3COC(=O)[C@H]23)OCO4)cc(OC)c1O", "note": "[etoposide]", "values": [{"measurement": "linear and nicked plasmid DNA products (in words)", "setting": "[1]", "result": "progressive increase in the linear and nicked plasmid DNA products"}, {"measurement": "fluorescence difference between presence and absence of compound (in words)", "setting": "[2]", "result": "significant fluorescence difference"}]}]}
